Results taken from paper PMC3144920, “Peptide Substrates for Rho-Associated Kinase 2 (Rho-Kinase 2/ROCK2)” (PLoS ONE, 2011).
“Also recorded” adds a separate entry of the source. Where a SMILES comes first, the peptide text is derived from it.

How the values were obtained:
Type in all cases: biochemical
ROCK2 [1] = target: T1, ROCK2 (Homo sapiens, UniProt O75116); assay: Kinetic analysis of peptide substrate phosphorylation by ROCK2 (Lineweaver–Burk plot)
T1 construct: purchased Carna Biosciences, Kobe, Japan
Experimental: The kinase activity of recombinant ROCK2 (Carna Biosciences, Kobe, Japan), ERK1 (Upstate, Millipore, Temecula, CA, USA), PKA (Promega, Madison, WI, USA), and PKCα (Sigma–Aldrich, St. Louis, MO, USA) for the peptide substrates was determined by measuring ^32P transfer from [γ-^32P]ATP into substrate peptides according to manufacturer recommendations. Phosphorylation reactions by ROCK2 were carried out in 25 µL of buffer (5 mM 3-(N-morpholino)propanesulfonic acid (MOPS) at pH 7.2, 2.5 mM beta-glycerophosphate, 1 mM ethylene glycol tetra-acetic acid (EGTA), 4 mM MgCl2, 0.05 mM dithiothreitol (DTT), and 100 µM adenosine triphosphate (ATP)) containing peptides and 1.25 µg/ml ROCK2. For PKCα, phosphorylation reactions were carried out in 25 µL of buffer (20 mM HEPES at pH 7.4, 10 mM MgCl2, 1 mM CaCl2, 100 µM ATP, 40 µg/mL phosphatidylserine, and 20 µg/mL diacylglycerol) containing peptides and 0.5 µg/mL PKCα. Phosphorylation reactions by PKA were carried out in 25 µL of buffer (50 mM HEPES at pH 7.4, 1 mM CaCl2, 10 mM MgCl2, 100 µM ATP) containing peptides and 1.6 µg/mL PKA. For ERK1, phosphorylation reactions were carried out in 25 µL of buffer (25 mM Tris-HCl at pH 7.5, 20 µM EGTA, 15 mM magnesium acetate, and 100 µM ATP) containing peptides and 0.5 µg/mL ERK1. For each experimental condition, values for control reactions lacking substrate peptides were subtracted as blanks. The assay mixture was incubated for 10 min at 25°C, and the reaction terminated by the addition of 5 µL of 30% trichloroacetic acid (TCA). The reaction mixture (24 µL) was spotted onto P-81 phosphocellulose membranes. The membranes were washed thrice with 5% TCA, dried with acetone, and the radioactivity of each membrane determined by liquid scintillation counting. Kinetic analyses of enzyme activity were determined using the Lineweaver–Burk plot. […]

PKCα = target: T2, PKCα (Homo sapiens, UniProt P17252); assay: Radiolabel assay using [γ-32P]ATP: phosphorylation of peptide substrates by PKCα; details: Fig. 3, in words; for CPM for PKCα: 0.5 µg/mL PKCα, 100 µM ATP, HEPES pH 7.4, 10 min at 25°C
T2 construct: purchased Sigma–Aldrich, St. Louis, MO, USA
Experimental: (§1) The kinase activity of recombinant ROCK2 (Carna Biosciences, Kobe, Japan), ERK1 (Upstate, Millipore, Temecula, CA, USA), PKA (Promega, Madison, WI, USA), and PKCα (Sigma–Aldrich, St. Louis, MO, USA) for the peptide substrates was determined by measuring ^32P transfer from [γ-^32P]ATP into substrate peptides according to manufacturer recommendations. Phosphorylation reactions by ROCK2 were carried out in 25 µL of buffer (5 mM 3-(N-morpholino)propanesulfonic acid (MOPS) at pH 7.2, 2.5 mM beta-glycerophosphate, 1 mM ethylene glycol tetra-acetic acid (EGTA), 4 mM MgCl2, 0.05 mM dithiothreitol (DTT), and 100 µM adenosine triphosphate (ATP)) containing peptides and 1.25 µg/ml ROCK2. For PKCα, phosphorylation reactions were carried out in 25 µL of buffer (20 mM HEPES at pH 7.4, 10 mM MgCl2, 1 mM CaCl2, 100 µM ATP, 40 µg/mL phosphatidylserine, and 20 µg/mL diacylglycerol) containing peptides and 0.5 µg/mL PKCα. Phosphorylation reactions by PKA were carried out in 25 µL of buffer (50 mM HEPES at pH 7.4, 1 mM CaCl2, 10 mM MgCl2, 100 µM ATP) containing peptides and 1.6 µg/mL PKA. For ERK1, phosphorylation reactions were carried out in 25 µL of buffer (25 mM Tris-HCl at pH 7.5, 20 µM EGTA, 15 mM magnesium acetate, and 100 µM ATP) containing peptides and 0.5 µg/mL ERK1. For each experimental condition, values for control reactions lacking substrate peptides were subtracted as blanks. The assay mixture was incubated for 10 min at 25°C, and the reaction terminated by the addition of 5 µL of 30% trichloroacetic acid (TCA). The reaction mixture (24 µL) was spotted onto P-81 phosphocellulose membranes. The membranes were washed thrice with 5% TCA, dried with acetone, and the radioactivity of each membrane determined by liquid scintillation counting. Kinetic analyses of enzyme activity were determined using the Lineweaver–Burk plot.

ROCK2 [2] = target: T1, ROCK2; assay: Inhibition of ROCK2 phosphorylation of S6K substrate peptide by inhibitor peptides; details: competitive; S6K peptide (KRRRLASLR) as substrate, 1.25 µg/mL ROCK2, 100 µM ATP, MOPS pH 7.2; Dixon plot and Lineweaver–Burk plot
Experimental: The phosphorylatable amino acid (threonine) of five peptide substrates (R4, R22, R133, R134, and R135) was replaced with alanine. […] Ki values were obtained from the Dixon plot and Lineweaver–Burk plot. Inhibitor peptides were added into 25 µL of buffer (5 mM MOPS at pH 7.2, 2.5 mM beta-glycerophosphate, 1 mM EGTA, 4 mM MgCl2, 0.05 mM DTT, and 100 µM ATP) containing S6K substrate peptide and 1.25 µg/mL ROCK2.

ERK1 = target: T3, ERK1 (Homo sapiens, UniProt P27361); assay: Radiolabel assay using [γ-32P]ATP: phosphorylation of peptide substrates by ERK1; details: 0.5 µg/mL ERK1, 100 µM ATP, Tris-HCl pH 7.5, 10 min at 25°C; Fig. 3, in words
T3 construct: purchased Upstate, Millipore, Temecula, CA, USA
Experimental: as §1

PKA = target: T4, PKA (Bos taurus, UniProt P00517); assay: Radiolabel assay using [γ-32P]ATP: phosphorylation of peptide substrates by PKA; details: 1.6 µg/mL PKA, 100 µM ATP, HEPES pH 7.4, 10 min at 25°C; Fig. 3, in words
T4 construct: purchased Promega, Madison, WI, USA
Experimental: as §1

T3 sequence (P27361 whole entry, species assumed): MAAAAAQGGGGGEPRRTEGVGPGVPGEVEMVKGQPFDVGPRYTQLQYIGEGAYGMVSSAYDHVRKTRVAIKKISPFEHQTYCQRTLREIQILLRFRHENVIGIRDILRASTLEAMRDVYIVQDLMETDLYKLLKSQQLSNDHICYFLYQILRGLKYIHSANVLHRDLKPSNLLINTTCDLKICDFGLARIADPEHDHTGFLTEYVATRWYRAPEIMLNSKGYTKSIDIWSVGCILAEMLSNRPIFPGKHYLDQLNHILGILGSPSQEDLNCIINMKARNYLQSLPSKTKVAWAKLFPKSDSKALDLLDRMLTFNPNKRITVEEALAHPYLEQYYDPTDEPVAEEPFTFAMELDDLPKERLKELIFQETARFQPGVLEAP
T1 sequence (O75116 1-553 limits assumed): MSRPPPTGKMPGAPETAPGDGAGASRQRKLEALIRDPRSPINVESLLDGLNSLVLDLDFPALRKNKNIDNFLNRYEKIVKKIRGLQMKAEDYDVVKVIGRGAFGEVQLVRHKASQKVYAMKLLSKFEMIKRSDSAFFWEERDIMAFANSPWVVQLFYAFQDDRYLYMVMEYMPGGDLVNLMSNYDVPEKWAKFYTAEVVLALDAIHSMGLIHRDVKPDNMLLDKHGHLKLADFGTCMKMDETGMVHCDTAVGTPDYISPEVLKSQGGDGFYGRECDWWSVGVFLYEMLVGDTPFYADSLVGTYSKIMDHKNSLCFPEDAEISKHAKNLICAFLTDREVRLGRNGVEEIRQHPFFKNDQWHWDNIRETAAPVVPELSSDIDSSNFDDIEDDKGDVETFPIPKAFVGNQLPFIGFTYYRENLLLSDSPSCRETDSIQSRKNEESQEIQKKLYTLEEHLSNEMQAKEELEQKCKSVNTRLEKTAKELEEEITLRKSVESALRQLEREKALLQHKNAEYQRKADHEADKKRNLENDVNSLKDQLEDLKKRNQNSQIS

Row | Compound | Km (ROCK2 [1]) [µM] | Vmax (ROCK2 [1]) [pmol/min/mg] | CPM for PKCα (PKCα) | Ki (ROCK2 [2]) [µM] | CPM for ROCK2 compared with ERK1 (ERK1) | CPM for ROCK2 compared with PKA (PKA) | CPM for ROCK2 compared with PKCα (PKCα)
1 | KRRRLASLR [S6K, synthetic peptide S6K (…) used as a control for ROCK2, reference compound] | 3.1 | 23.1 | – | – | – | – | –
2 | CSCC[C@H](NC(=O)[C@H](Cc1c[nH]c2ccccc12)NC(=O)[C@H](Cc1ccc(O)cc1)NC(=O)[C@@H]1CCCN1C(=O)[C@H](CC(N)=O)NC(=O)CNC(=O)[C@@H](NC(=O)[C@@H](NC(=O)[C@H](C)NC(=O)[C@H](Cc1ccc(O)cc1)NC(=O)[C@H](CCCNC(=N)N)NC(=O)[C@H](CCCCN)NC(=O)[C@H](CCCCN)NC(=O)[C@H](CCCNC(=N)N)NC(=O)[C@H](CC(=O)O)NC(=O)[C@H](C)NC(=O)[C@@H](N)CCCCN)C(C)C)C(C)C)C(=O)O [R135 with alanine instead of threonine] (H-KADRKKRYAVVGNPYWM-OH; N-terminus and C-terminus assumed) | – | – | – | > 100 | – | – | –
3 | CSCC[C@H](NC(=O)[C@H](Cc1c[nH]c2ccccc12)NC(=O)[C@H](Cc1ccc(O)cc1)NC(=O)[C@@H]1CCCN1C(=O)[C@H](CC(N)=O)NC(=O)CNC(=O)[C@@H](NC(=O)[C@@H](NC(=O)[C@H](C)NC(=O)[C@H](Cc1ccc(O)cc1)NC(=O)[C@H](CCCNC(=N)N)NC(=O)[C@H](CCCCN)NC(=O)[C@H](CCCCN)NC(=O)[C@H](CCCNC(=N)N)NC(=O)[C@H](C)NC(=O)[C@H](CO)NC(=O)[C@@H](N)CCCCN)C(C)C)C(C)C)C(=O)O [R134 with alanine instead of threonine] (H-KSARKKRYAVVGNPYWM-OH) | – | – | – | 29.2 | – | – | –
4 | CSCC[C@H](NC(=O)[C@H](Cc1c[nH]c2ccccc12)NC(=O)[C@H](Cc1ccc(O)cc1)NC(=O)[C@@H]1CCCN1C(=O)[C@H](CC(N)=O)NC(=O)CNC(=O)[C@@H](NC(=O)[C@@H](NC(=O)[C@H](C)NC(=O)[C@H](Cc1ccc(O)cc1)NC(=O)[C@H](CCCNC(=N)N)NC(=O)[C@H](CCCCN)NC(=O)[C@H](CCCCN)NC(=O)[C@H](CCCNC(=N)N)NC(=O)[C@H](CC(=O)O)NC(=O)[C@H](CO)NC(=O)[C@@H](N)CCCCN)C(C)C)C(C)C)C(=O)O [R133 with alanine instead of threonine] (H-KSDRKKRYAVVGNPYWM-OH; N-terminus and C-terminus assumed) | – | – | – | > 100 | – | – | –
5 | CSCC[C@H](NC(=O)[C@H](Cc1c[nH]c2ccccc12)NC(=O)[C@H](Cc1ccc(O)cc1)NC(=O)[C@@H]1CCCN1C(=O)[C@H](CC(N)=O)NC(=O)CNC(=O)[C@@H](NC(=O)[C@@H](NC(=O)[C@H](C)NC(=O)[C@H](Cc1ccc(O)cc1)NC(=O)[C@H](CCCNC(=N)N)NC(=O)[C@H](CCCCN)NC(=O)[C@H](CCCCN)NC(=O)[C@H](CCCNC(=N)N)NC(=O)[C@H](C)NC(=O)[C@@H]1CCCN1C(=O)[C@@H](N)CCCCN)C(C)C)C(C)C)C(=O)O [R22 with alanine instead of threonine] (H-KPARKKRYAVVGNPYWM-OH) | – | – | – | 11.6 | – | – | –
6 | CC[C@H](C)[C@H](NC(=O)[C@H](CCC(N)=O)NC(=O)[C@H](CCCNC(=N)N)NC(=O)[C@H](CC(C)C)NC(=O)[C@H](C)NC(=O)[C@H](CCCCN)NC(=O)[C@H](Cc1ccc(O)cc1)NC(=O)[C@H](CCCCN)NC(=O)[C@H](C)NC(=O)[C@@H](N)CCCNC(=N)N)C(=O)N[C@@H](CCCNC(=N)N)C(=O)O [R4 with alanine instead of threonine] (H-RAKYKALRQIR-OH) | – | – | – | 86.6 | – | – | –

Further lines, with some results ahead:

Row | Km (ROCK2 [1]) [µM] | Vmax (ROCK2 [1]) [pmol/min/mg] | CPM for PKCα (PKCα) | Ki (ROCK2 [2]) [µM] | Compound | CPM for ROCK2 compared with ERK1 (ERK1) | CPM for ROCK2 compared with PKA (PKA) | CPM for ROCK2 compared with PKCα (PKCα)
7 | 3.3 | 14.9 | high CPM | – | KSARKKRYTVVGNPYWM [R134, peptide substrate for ROCK2 …, origin LIMK2] | – | – | –
8 | 1.7 | 14.2 | high CPM | – | RAKYKTLRQIR [R4, peptide substrate for ROCK2 …, origin ERM family (Ezrin/ Radixin/ Moesin)] | – | – | –
9 | 3.2 | 8.6 | – | – | KADRKKRYTVVGNPYWM [R135, peptide substrate for ROCK2 …, origin LIMK2] | higher CPM levels for ROCK2 than the other enzymes | higher CPM levels for ROCK2 than the other enzymes | much higher CPM for ROCK2 than that of PKCα; also recorded: higher CPM levels for ROCK2 than the other enzymes
10 | 1.9 | 10.3 | – | – | KPARKKRYTVVGNPYWM [R22, peptide substrate for ROCK2 …, origin LIM-kinase 1 (LIMK1)] | higher CPM levels for ROCK2 than the other enzymes | higher CPM levels for ROCK2 than the other enzymes | much higher CPM for ROCK2 than that of PKCα; also recorded: higher CPM levels for ROCK2 than the other enzymes
11 | 3.6 | 10.0 | – | – | KSDRKKRYTVVGNPYWM [R133, peptide substrate for ROCK2 …, origin LIMK2] | higher CPM levels for ROCK2 than the other enzymes | higher CPM levels for ROCK2 than the other enzymes | much higher CPM for ROCK2 than that of PKCα; also recorded: higher CPM levels for ROCK2 than the other enzymes
